# Measured values reported in patent US10351523B2, “UV-absorbing compounds with at least one reactive hydrogen” (ISP INVESTMENTS LLC, priority 2013, dated 2019).
# Test: Water solubility of the isolated powder (observation after work-up)
# Format: physicochemical
# Conditions: isolated lemon-yellow powder
# Description: (§1) To a premixed solution of 6.0 g ethylene diamine in 30 ml ethanol was added 30.8 g of 5-benzoyl-4-hydroxy-2-methoxy benzenesulfonic acid and stirred well until a solution was formed. The mixture was heated to 130° C. for 16 hours and then cooled to 70° C. The ethanol residue was flashed off in a vacuum oven at 70° C.
# as §1, with “11.6” for “6.0”, “hexamethylene” for “ethylene”, “40 g” for “30 ml”
# An amount of 7.4 g propylene diamine, 30.8 g of 5-benzoyl-4-hydroxy-2-methoxy benzenesulfonic acid, and 30 ml of 1:1 ethanol-water mixture was stirred well until a clear solution was obtained. […] The ethanol residue was flashed off in a vacuum oven at 70° C.
row,Substance,solubility in water
1,2-hydroxy-4-methoxy-5-(N-3-aminopropyl)sulfonamido-4′-methylbenzophenone [Example 5],insoluble in water
2,2-hydroxy-4-methoxy-5-(N-6-aminohexyl) sulfonamido-4′-methylbenzophenone [Example 4],insoluble in water
